For assay [1], the target named is T1, N-terminal GST tagged full length human TTK kinase (Homo sapiens, UniProt P33981).
T1 construct: N-terminal GST tagged full length human TTK kinase; GST (N); made in house; host or cells: insect cells
T1 sequence (P33981 1-857): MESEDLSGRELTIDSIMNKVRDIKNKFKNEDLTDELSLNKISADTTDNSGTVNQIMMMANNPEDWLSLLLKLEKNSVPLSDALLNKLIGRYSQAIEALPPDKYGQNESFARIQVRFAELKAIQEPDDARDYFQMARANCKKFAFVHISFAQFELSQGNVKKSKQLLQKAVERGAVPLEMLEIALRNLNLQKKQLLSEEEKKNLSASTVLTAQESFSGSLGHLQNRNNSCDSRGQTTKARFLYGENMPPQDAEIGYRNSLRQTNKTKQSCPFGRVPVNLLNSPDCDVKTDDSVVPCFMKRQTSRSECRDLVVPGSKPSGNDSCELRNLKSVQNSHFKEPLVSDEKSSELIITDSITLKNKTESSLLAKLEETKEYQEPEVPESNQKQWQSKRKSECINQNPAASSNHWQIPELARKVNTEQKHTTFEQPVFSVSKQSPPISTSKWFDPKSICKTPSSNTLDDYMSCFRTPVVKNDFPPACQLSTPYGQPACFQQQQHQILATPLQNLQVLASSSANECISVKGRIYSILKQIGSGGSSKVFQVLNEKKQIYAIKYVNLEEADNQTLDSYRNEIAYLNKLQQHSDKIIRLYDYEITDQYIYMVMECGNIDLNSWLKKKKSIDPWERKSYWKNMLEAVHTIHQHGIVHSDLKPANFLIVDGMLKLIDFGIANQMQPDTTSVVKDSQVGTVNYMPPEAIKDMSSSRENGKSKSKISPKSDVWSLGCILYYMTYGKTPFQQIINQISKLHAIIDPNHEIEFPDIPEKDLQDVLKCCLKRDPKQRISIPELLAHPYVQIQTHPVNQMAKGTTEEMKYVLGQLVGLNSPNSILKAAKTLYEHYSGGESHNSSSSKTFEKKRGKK
Description: In Vitro TTK Kinase Assay 1 (AlphaScreen). The format is biochemical. The settings on record: recombinant TTK, 10 μM ATP, read-out: EAA: Enzyme Assay Activity (In Vitro TTK kinase assay 1). The procedure: Aliquots (2 μL) of each compound dilution were placed into wells of a Greiner 384-well low volume white polystyrene plate (Greiner Bio-one).
The resultant signals arising from laser light excitation at 680 nm were read using a Packard Envision instrument.

Assay [2] addresses T1, N-terminal GST tagged full length human TTK kinase. Description: In Vitro TTK Kinase Assay 2 (Caliper LabChip LC3000). The settings on record: recombinant TTK, 12 μM ATP, read-out: EAA2: Enzyme Assay Activity (In Vitro TTK kinase assay 2). The format is biochemical. The procedure:
Each reaction was stopped by the addition of EDTA to a concentration of 40 mM in a solution which also comprised 0.1% coating reagent (Caliper LS), 100 mM HEPES pH 7.5, 0.015% v/v Brij™-35 and 5% DMSO. The stopped enzyme reactions were sipped through capillaries onto a Caliper chip where the peptide substrate and phosphorylated product were separated and detected via laser-induced fluorescence.

Structures are written as SMILES.

`CCn1c(=O)n(C2CCCC2)c2nc(Nc3ccc(N4CCN(C)CC4)cc3OC)ncc21` [Example 29, 9-Cyclopentyl-7-ethyl-2-{[2-methoxy-4-(4-methylpiperazin-1-yl)-phenyl]amino}-7,9-dihydro-8H-purin-8-one]: the IC50 in assay [1] is 0.22 µM; in assay [2], 0.0538 µM. On to `COc1cc(C2CCN(C)CC2)ccc1Nc1ncc2c(n1)n(C(C)C)c(=O)n2C` [Example 47, 9-Isopropyl-2-{[2-methoxy-4-(1-methylpiperidin-4-yl)phenyl]-amino}-7-methyl-7,9-dihydro-8H-purin-8-one], for which the IC50 in assay [1] worked out at 5.65 µM.

Regarding `CCn1c(=O)n(C2CCCC2)c2nc(Nc3ccc(OC4CCN(C)CC4)cc3OC)ncc21` [Example 30, 9-Cyclopentyl-7-ethyl-2-({2-methoxy-4-[(1-methylpiperidin-4-yl)-oxy]phenyl}amino)-7,9-dihydro-8H-purin-8-one], the IC50 came to 0.0913 µM in assay [1] and 0.0108 µM in assay [2]. In the same order, the values of `CCn1c(=O)n(C2CCCC2)c2nc(Nc3ccc(C(=O)NC)cc3OC)ncc21` [Example 31, 4-[(9-Cyclopentyl-7-ethyl-8-oxo-8,9-dihydro-7H-purin-2-yl)-amino]-3-methoxy-N-methylbenzamide] are 0.371 µM and 0.0164 µM. In the same order, the values of `COc1cc(NS(C)(=O)=O)ccc1Nc1ncc2c(n1)n(C1CCCC1)c(=O)n2C` [Example 7, N-{4-[(9-Cyclopentyl-7-methyl-8-oxo-8,9-dihydro-7H-purin-2-yl)-amino]-3-methoxyphenyl}methanesulfonamide] are 0.714 µM and 0.0307 µM. In the same order, the values of `COc1cc(OC2CCN(C)C2)ccc1Nc1ncc2c(n1)n(C1CCCC1)c(=O)n2C` (centres unmarked) [Example 24, 9-Cyclopentyl-2-({2-methoxy-4-[(1-methylpyrrolidin-3-yl)-oxy]-phenyl}amino)-7-methyl-7,9-dihydro-8H-purin-8-one] are 0.151 µM and 0.0173 µM.

As for `CN1C2CCCC1CC(NC(=O)c1ccc(Nc3ncc4c(n3)n(C3CCCC3)c(=O)n4C)c(F)c1)C2` (centres unmarked) [Example 16, 4-[(9-Cyclopentyl-7-methyl-8-oxo-8,9-dihydro-7H-purin-2-yl)-amino]-3-fluoro-N-(9-methyl-9-azabicyclo[3.3.1]non-3-yl)-benzamide], the results for the IC50 in assay [1] and in assay [2] were 1.68 µM and 0.313 µM, respectively. As to `CN1CCC(NC(=O)c2ccc(Nc3ncc4c(n3)n(C3CCCC3)c(=O)n4C)c(Cl)c2)CC1` [Example 15, 3-Chloro-4-[(9-cyclopentyl-7-methyl-8-oxo-8,9-dihydro-7H-purin-2-yl)amino]-N-(1-methylpiperidin-4-yl)benzamide], the IC50 in assay [1] amounted to 3.23 µM; in assay [2] it was 0.235 µM. In the same order, the values of `COc1cc(CCN2CCN(C)CC2)ccc1Nc1ncc2c(n1)n(C1CCCC1)c(=O)n2C` [Example 27, 9-Cyclopentyl-2-({2-methoxy-4-[2-(4-methylpiperazin-1-yl)-ethyl]phenyl}amino)-7-methyl-7,9-dihydro-8H-purin-8-one] are 0.288 µM and 0.0241 µM. In the same order, the values of `COc1cc(N2CCN(C)CC2)ccc1Nc1ncc2c(n1)n(C1CCCC1)c(=O)n2CC#N` [Example 36, (9-Cyclopentyl-2-{[2-methoxy-4-(4-methylpiperazin-1-yl)-phenyl]-amino}-8-oxo-8,9-dihydro-7H-purin-7-yl)acetonitrile] are 0.217 µM and 0.0216 µM. In the same order, the values of `CCN1CCC(NC(=O)c2cc(F)c(Nc3ncc4c(n3)n(C3CCCC3)c(=O)n4C)cc2F)CC1` [Example 17, 4-[(9-Cyclopentyl-7-methyl-8-oxo-8,9-dihydro-7H-purin-2-yl)-amino]-N-(1-ethylpiperidin-4-yl)-2,5-difluorobenzamide] are 9.24 µM and 2.01 µM.

In the case of `CCn1c(=O)n(C2CCCC2)c2nc(Nc3ccc(S(C)(=O)=O)cc3OC)ncc21` [Example 32, 9-Cyclopentyl-7-ethyl-2-{[2-methoxy-4-(methylsulfonyl)-phenyl]-amino}-7,9-dihydro-8H-purin-8-one], the IC50 in assay [1] was 1.33 µM; in assay [2] it was 0.0245 µM. In the same order, the values of `CN1CCC(NC(=O)c2ccc(Nc3ncc4c(n3)n(C3CCCC3)c(=O)n4C)cc2F)CC1` [Example 8, 4-[(9-Cyclopentyl-7-methyl-8-oxo-8,9-dihydro-7H-purin-2-yl)-amino]-2-fluoro-N-(1-methylpiperidin-4-yl)benzamide] are 3.91 µM and 0.633 µM. For `COc1cc(C(=O)NCCN(C)C)ccc1Nc1ncc2c(n1)n(C1CCCC1)c(=O)n2C` [Example 67, 4-[(9-Cyclopentyl-7-methyl-8-oxo-8,9-dihydro-7H-purin-2-yl)-amino]-N-[2-(dimethylamino)ethyl]-3-methoxybenzamide], the IC50 in assay [2] worked out at 0.119 µM. Still for that read-out and setting: to `COc1cc(C(=O)NCCN2CCN(C)CC2)ccc1Nc1ncc2c(n1)n(C1CCCC1)c(=O)n2C` [Example 64, 4-[(9-Cyclopentyl-7-methyl-8-oxo-8,9-dihydro-7H-purin-2-yl)-amino]-3-methoxy-N-[2-(4-methylpiperazin-1-yl)ethyl]benzamide] belongs 0.0611 µM; to `COc1cc(C(=O)NCCCN(C)C)ccc1Nc1ncc2c(n1)n(C1CCCC1)c(=O)n2C` [Example 62, 4-[(9-Cyclopentyl-7-methyl-8-oxo-8,9-dihydro-7H-purin-2-yl)-amino]-N-[3-(dimethylamino)propyl]-3-methoxybenzamide], 0.0509 µM; to `Cn1c(=O)n(C2CCCC2)c2nc(Nc3ccc(N4CCOCC4)c(Cl)c3)ncc21` [Example 72, 2-[(3-Chloro-4-morpholin-4-ylphenyl)amino]-9-cyclopentyl-7-methyl-7,9-dihydro-8H-purin-8-one], 0.027 µM.

Consider `Cn1c(=O)n(C2CCCC2)c2nc(Nc3ccc(N4CCOCC4)cc3)ncc21` [Example 80, 9-Cyclopentyl-7-methyl-2-[(4-morpholin-4-ylphenyl)amino]-7,9-dihydro-8H-purin-8-one], for which the IC50 in assay [2] was found to be 0.14 µM. On the same count and under the same terms, under `COc1cc(C(=O)N(C)CCCN(C)C)ccc1Nc1ncc2c(n1)n(C1CCCC1)c(=O)n2C` [Example 54, 4-[(9-Cyclopentyl-7-methyl-8-oxo-8,9-dihydro-7H-purin-2-yl)-amino]-N-[3-(dimethylamino)propyl]-3-methoxy-N-methylbenzamide] stands 0.0362 µM; under `Cn1c(=O)n(C2CCCC2)c2nc(Nc3ccc(N4CCCCC4)cc3)ncc21` [Example 77, 9-Cyclopentyl-7-methyl-2-[(4-piperidin-1-ylphenyl)amino]-7,9-dihydro-8H-purin-8-one], 0.109 µM. Same read-out and setting: to `COCCN1CCN(C(=O)c2ccc(Nc3ncc4c(n3)n(C3CCCC3)c(=O)n4C)c(OC)c2)CC1` [Example 57, 9-Cyclopentyl-2-[(2-methoxy-4-{[4-(2-methoxyethyl)piperazin-1-yl]-carbonyl}phenyl)amino]-7-methyl-7,9-dihydro-8H-purin-8-one] belongs 0.0356 µM; to `Cn1c(=O)n(C2CCCC2)c2nc(Nc3ccc(C(=O)c4ccccc4)cc3)ncc21` [Example 71, 2-[(4-Benzoylphenyl)amino]-9-cyclopentyl-7-methyl-7,9-dihydro-8H-purin-8-one], 0.586 µM; to `Cn1c(=O)n(C2CCCC2)c2nc(Nc3ccc(-n4cccn4)cc3)ncc21` [Example 79, 9-Cyclopentyl-7-methyl-2-{[4-(1H-pyrazol-1-yl)phenyl]amino}-7,9-dihydro-8H-purin-8-one], 0.0452 µM. On the same count and under the same terms, to `COc1cc(C(=O)O)ccc1Nc1ncc2c(n1)n(C1CCCC1)c(=O)n2C` [Example 49, 4-[(9-Cyclopentyl-7-methyl-8-oxo-8,9-dihydro-7H-purin-2-yl)-amino]-3-methoxybenzoic acid] belongs 0.0724 µM; to `COc1cc(C(=O)NCCCCN2CCCC2)ccc1Nc1ncc2c(n1)n(C1CCCC1)c(=O)n2C` [Example 66, 4-[(9-Cyclopentyl-7-methyl-8-oxo-8,9-dihydro-7H-purin-2-yl)-amino]-3-methoxy-N-(4-pyrrolidin-1-ylbutyl)benzamide], 0.132 µM; to `COc1cc(C(=O)NC2CCC(N(C)C)CC2)ccc1Nc1ncc2c(n1)n(C1CCCC1)c(=O)n2C` (centres unmarked) [Example 58], 0.136 µM.

The values above are taken from patent publication US20110118238A1, “2-ANILINOPURIN-8-ONES AS INHIBITORS OF TTK/MPS1 FOR THE TREATMENT OF PROLIFERATIVE DISORDERS” (ASTRAZENECA AB, priority 2007, published 2011).
